For this assay, the system named is A549 cells. The experiment in a line: Cell migration assay (24-well transwell, laminin). It is filed as cell-based, human. To be noted: Homo sapiens, A549, 6 h, laminin 10 μg/mL in lower well, test compounds 0.39˜100 μM, migrated cells counted, read-out: Inhibitory activity against cell migration. Here is the method:
Cell migration was measured with a 24-well transwell having a polycarbonate membrane (8.0 μm pore size, Costar) at the bottom of the upper chamber. Each lower well was treated with laminin (10 μg/mL) and test compounds in predetermined concentrations (0.39˜100 μM) along with a serum-free RPMI1640 medium. A549 cells (Korean Cell Line Bank) were suspended in a serum-free RPMI1640 medium at a concentration of 1×10^6 cells/mL and then the test compounds were added thereto at the indicated concentrations. Each resulting solution (100 μL) was added to the upper chamber. The cells were cultured at 37° C. for 6 hours in a CO2 incubator. The upper chamber was taken out and then the cells were fixed with PBS containing 70% methyl alcohol for 10 minutes, followed by washing with PBS twice. The cells were stained with hematoxylin (Sigma) for 10 minutes and then washed with distilled water. The non-migrated cells were removed from the upper portion of the polycarbonate membrane with a cotton swab. The membranes were excised and separated from the chamber, and then mounted to a slide using a gel mount reagent (Biomeda, USA). The migrated cells (attached to the lower face of the membrane) were counted at three randomly selected sites under a microscope (×20). The cell counting was performed with the Image J program. From the counted cell numbers, each IC50 value was calculated by non-linear regression curve fit using the “GraphPad Prism” program.
The cells are pulled by laminin residing in the lower chamber and then passed through the polycarbonate membrane, so as to attach to the lower face of the membrane.
`COc1cc(C)c(CCN(c2nc3cccc(F)c3s2)C(C)c2ccc(C(=O)O)cc2)cc1C(C)C` (centres unmarked) [Example 62, 4-{1-[(7-fluorobenzo[d]thiazol-2-yl){2-[4-methoxy-2-methyl-5-(propan-2-yl)phenyl]ethyl}amino]ethyl}benzoic acid]: the IC50 is > 10000 nM.

Take `COc1ccc(CCN(c2nc3cccc(F)c3s2)C(C)c2ccc(C(=O)O)cc2)c(C)c1C` (centres unmarked) [Example 63, 4-(1-{(7-fluorobenzo[d]thiazol-2-yl)[2-(4-methoxy-2,3-dimethylphenyl)ethyl]amino}ethyl)benzoic acid]: the IC50 is < 1000 nM.

As for `COc1cc(C)c(CCN(c2nc3cccc(F)c3s2)C(C)c2ccc(C(=O)O)cc2)cc1C` (centres unmarked) [Example 64, 4-(1-{(7-fluorobenzo[d]thiazol-2-yl)[2-(4-methoxy-2,5-dimethylphenyl)ethyl]amino}ethyl)benzoic acid], the IC50 was < 1000 nM.

Take `COc1ccc(CCN(c2nc3cccc(F)c3s2)C(C)c2ccc(C(=O)O)cc2)cc1C` (centres unmarked) [Example 65, 4-(1-{(7-fluorobenzo[d]thiazol-2-yl)[2-(4-methoxy-3-methylphenyl)ethyl]amino}ethyl)benzoic acid]: the IC50 was < 1000 nM.

Take `COc1ccc(CCN(c2nc3cccc(F)c3s2)C(C)c2ccc(C(=O)O)cc2)c(C)c1` (centres unmarked) [Example 66, 4-(1-{(7-fluorobenzo[d]thiazol-2-yl)[2-(4-methoxy-2-methylphenyl)ethyl]amino}ethyl)benzoic acid]: the IC50 is < 1000 nM.

Consider `COc1cc(F)c(CCN(c2nc3cccc(F)c3s2)C(C)c2ccc(C(=O)O)cc2)c(F)c1` (centres unmarked) [Example 67, 4-(1-{[2-(2,6-difluoro-4-methoxyphenyl)ethyl](7-fluorobenzo[d]thiazol-2-yl)amino}ethyl)benzoic acid], for which the IC50 is < 1000 nM.

As to `CCC(c1ccc(C(=O)O)cc1)N(CCc1ccc(OC)c(F)c1F)c1nc2cccc(F)c2s1` (centres unmarked) [Example 68, 4-(1-{[2-(2,3-difluoro-4-methoxyphenyl)ethyl](7-fluorobenzo[d]thiazol-2-yl)amino}propyl)benzoic acid], the IC50 is < 1000 nM.

With `CCC(c1ccc(C(=O)O)cc1)N(CCc1cc(F)c(OC)cc1F)c1nc2cccc(F)c2s1` (centres unmarked) [Example 69, 4-(1-{[2-(2,5-difluoro-4-methoxyphenyl)ethyl](7-fluorobenzo[d]thiazol-2-yl)amino}propyl)benzoic acid], the IC50 is > 10000 nM.

For the compound `CCC(c1ccc(C(=O)O)cc1)N(CCc1ccc(OC)cc1Cl)c1nc2cccc(F)c2s1` (centres unmarked) [Example 70, 4-(1-{[2-(2-chloro-4-methoxyphenyl)ethyl](7-fluorobenzo[d]thiazol-2-yl)amino}propyl)benzoic acid], the IC50 is > 10000 nM.

For `CCC(c1ccc(C(=O)O)cc1)N(CCc1ccc(OC)c(C)c1C)c1nc2cccc(F)c2s1` (centres unmarked) [Example 71, 4-(1-{(7-fluorobenzo[d]thiazol-2-yl)[2-(4-methoxy-2,3-dimethylphenyl)ethyl]amino}propyl)benzoic acid], the IC50 was > 10000 nM.

Take `CCC(c1ccc(C(=O)O)cc1)N(CCc1cc(C)c(OC)cc1C)c1nc2cccc(F)c2s1` (centres unmarked) [Example 72, 4-(1-{(7-fluorobenzo[d]thiazol-2-yl)[2-(4-methoxy-2,5-dimethylphenyl)ethyl]amino}propyl)benzoic acid]: the IC50 is > 10000 nM.

Regarding `CCC(c1ccc(C(=O)O)cc1)N(CCc1ccc(OC)c(C)c1)c1nc2cccc(F)c2s1` (centres unmarked) [Example 73, 4-(1-{(7-fluorobenzo[d]thiazol-2-yl)[2-(4-methoxy-3-methylphenyl)ethyl]amino}propyl)benzoic acid], the IC50 is > 10000 nM.

As to `CCC(c1ccc(C(=O)O)cc1)N(CCc1ccc(OC)cc1C)c1nc2cccc(F)c2s1` (centres unmarked) [Example 74, 4-(1-{(7-fluorobenzo[d]thiazol-2-yl)[2-(4-methoxy-2-methylphenyl)ethyl]amino}propyl)benzoic acid], the IC50 was > 10000 nM.

With `CCC(c1ccc(C(=O)O)cc1)N(CCc1c(F)cc(OC)cc1F)c1nc2cccc(F)c2s1` (centres unmarked) [Example 75, 4-(1-{[2-(2,6-difluoro-4-methoxyphenyl)ethyl](7-fluorobenzo[d]thiazol-2-yl)amino}propyl)benzoic acid], the IC50 is > 10000 nM.

Regarding `CCC(c1ccc(C(=O)O)cc1)N(CCc1cc(C(C)C)c(OC)cc1C)c1nc2cccc(F)c2s1` (centres unmarked) [Example 76, 4-{1-[(7-fluorobenzo[d]thiazol-2-yl){2-[4-methoxy-2-methyl-5-(propan-2-yl)phenyl]ethyl}amino]propyl}benzoic acid], the IC50 was > 10000 nM.

With `COc1ccc(CCN(Cc2ccc(C(=O)O)c(O)c2)c2nc3cccc(F)c3s2)cc1` [Example 77, 4-({(7-fluorobenzo[d]thiazol-2-yl)[2-(4-methoxyphenyl)ethyl]amino}methyl)-2-hydroxybenzoic acid], the IC50 is < 1000 nM.

In the case of `COc1ccc(CCN(Cc2ccc(C(=O)O)cc2Cl)c2nc3cccc(F)c3s2)cc1` [Example 78, 3-chloro-4-({(7-fluorobenzo[d]thiazol-2-yl)[2-(4-methoxyphenyl)ethyl]amino}methyl)benzoic acid], the IC50 was < 1000 nM.

In the case of `COc1ccc(CCN(Cc2ccc(C(=O)O)cc2)c2nc3ccc([N+](=O)[O-])cc3s2)cc1` [Example 79, 4-({[2-(4-methoxyphenyl)ethyl](6-nitro-benzo[d]thiazol-2-yl)amino}methyl)benzoic acid], the IC50 was < 1000 nM.

Turning to `COc1ccc(CCN(Cc2ccc(C(=O)O)cc2)c2nc3cccc([N+](=O)[O-])c3s2)cc1` [Example 80, 4-({[2-(4-methoxyphenyl)ethyl](7-nitro-benzo[d]thiazol-2-yl)amino}methyl)benzoic acid], the IC50 was < 1000 nM.

As for `COc1ccc(CCN(Cc2ccc(C(=O)O)cc2)c2nc3ccc(N)cc3s2)cc1` [Example 81, 4-({(6-amino-benzo[d]thiazol-2-yl)[2-(4-methoxyphenyl)ethyl]amino}methyl)benzoic acid], the IC50 was < 1000 nM.

With `COc1ccc(CCN(Cc2ccc(C(=O)O)cc2)c2nc3cccc(N)c3s2)cc1` [Example 82, 4-({(7-amino-benzo[d]thiazol-2-yl)[2-(4-methoxyphenyl)ethyl]amino}methyl)benzoic acid], the IC50 was < 1000 nM.

With `COc1ccc(CCN(Cc2ccc(C(=O)O)cc2)c2nc3cccc(Cl)c3s2)cc1` [Example 83, 4-({(7-chloro-benzo[d]thiazol-2-yl)[2-(4-methoxyphenyl)ethyl]amino}methyl)benzoic acid], the IC50 is < 1000 nM.

On to `COc1ccc(CCN(Cc2ccc(C(=O)O)cc2)c2nc3ccc(Cl)cc3s2)cc1` [Example 84, 4-({(6-chloro-benzo[d]thiazol-2-yl)[2-(4-methoxyphenyl)ethyl]amino}methyl)benzoic acid], for which the IC50 was < 1000 nM.

Take `COc1ccc(CCN(Cc2ccc(C(=O)O)cc2)c2nc3cc(Cl)ccc3s2)cc1` [Example 85, 4-({(5-chloro-benzo[d]thiazol-2-yl)[2-(4-methoxyphenyl)ethyl]amino}methyl)benzoic acid]: the IC50 is < 1000 nM.

In the case of `COc1ccc(CCN(Cc2ccc(C(=O)O)cc2)c2nc3cc(F)c(F)cc3s2)cc1` [Example 86, 4-({(5,6-difluorobenzo[d]thiazol-2-yl)[2-(4-methoxyphenyl)ethyl]amino}methyl)benzoic acid], the IC50 is < 1000 nM.

Consider `COc1ccc(CCN(Cc2ccc(C(=O)O)cc2)c2nc3cc(F)c(F)c(F)c3s2)cc1` [Example 87, 4-{[[2-(4-methoxyphenyl)ethyl](5,6,7-trifluorobenzo[d]thiazol-2-yl)amino]methyl}benzoic acid], for which the IC50 was < 1000 nM.

As for `COc1ccc(CCN(Cc2ccc(C(=O)O)cc2)c2nc3ccc(Cl)c(F)c3s2)cc1` [Example 88, 4-({(6-chloro-7-fluorobenzo[d]thiazol-2-yl)[2-(4-methoxyphenyl)ethyl]amino}methyl)benzoic acid], the IC50 is < 1000 nM.

As to `COc1ccc(CCN(Cc2ccc(C(=O)O)cc2)c2nc3cccc(C(F)(F)F)c3s2)cc1` [Example 89, 4-{[[2-(4-methoxyphenyl)ethyl](7-trifluoromethyl-benzo[d]thiazol-2-yl)amino]methyl}benzoic acid], the IC50 is < 1000 nM.

Turning to `COc1ccc(CCN(Cc2ccc(C(=O)O)cc2)c2nc3ccc(F)c(F)c3s2)cc1` [Example 90, 4-({(6,7-difluorobenzo[d]thiazol-2-yl)-[2-(4-methoxyphenyl)ethyl]amino}methyl)benzoic acid], the IC50 was < 1000 nM.

On to `COc1ccc(CCN(Cc2ccc(C(=O)O)cc2)c2nc3cc(Br)ccc3s2)cc1` [Example 91, 4-({(5-bromo-benzo[d]thiazol-2-yl)[2-(4-methoxyphenyl)ethyl]amino}methyl)benzoic acid], for which the IC50 was < 1000 nM.

As to `COc1ccc(CCN(Cc2ccc(C(=O)O)cc2)c2nc3ccc(F)cc3s2)cc1` [Example 92, 4-({(6-fluorobenzo[d]thiazol-2-yl)[2-(4-methoxyphenyl)ethyl]amino}methyl)benzoic acid], the IC50 is < 1000 nM.

Turning to `COc1ccc(CCN(Cc2ccc(C(=O)O)cc2)c2nc3cc(F)cc(F)c3s2)cc1` [Example 93, 4-({(5,7-difluorobenzo[d]thiazol-2-yl)[2-(4-methoxyphenyl)ethyl]amino}methyl)benzoic acid], the IC50 was < 1000 nM.

The values above are taken from patent US10383859B2, “Benzo[d]thiazole derivative or salt thereof, and pharmaceutical composition including same” (Yuhan Corporation, priority 2016, dated 2019).
